Here are results for four compounds from patent US7217726B2, “Antibacterial agents” (Orchid Chemicals & Pharmaceuticals Limited, priority 2002, dated 2007).

Converted amounts (≈) assume the structure as drawn.

The subject of one test is S. epidermidis MRO 02046. In words: Agar Dilution Method MIC, S. epidermidis MRO 02046. The settings on record: Staphylococcus epidermidis, MRO02046, Mueller Hinton Agar, 35° Celsius, 20 hours, read-out: Minimum Inhibitory Concentration (MIC in μg/ml). The test is classed as cell-based. As to the method:
(§1) Briefly, the compounds of invention were weighed, dissolved in Dimethyl Sulfoxide, serially diluted in the same solvent and then incorporated into molten Mueller Hinton Agar in a petridish before solidification, with each petridish containing a different concentration of a compound.
(§2) The Bacterial Inoculum was prepared by touching the tops of 3 to 5 well isolated bacterial colonies with the same morphological appearance from an 18 hour old culture with an inoculating loop, transfering the growth to a tube containing 5 ml of normal saline and adjusting the turbidity of the saline suspension to 0.5 Macfarland Turbidity Standard equivalent to a bacterial population of 1.5×10^8 colony forming units (CFU) per millilitre of suspension.
(§3) The bacterial inoculum prepared in the above manner was inoculated onto petri dishes containing Mueller Hinton Agar which had earlier been incorporated with different dilutions of the compounds of invention by a Multipoint Inoculator with each inoculum spot containing approximately 1×10^4 colony forming units (CFU) of bacteria.
(§4) The inoculated petridishes were incubated at 35° Celsius in an ambient atmosphere for 20 hours. Petridishes containing different concentrations of Vancomycin and Oxacillin and inoculated with Staphylococcus aureus, Coagulase Negative Staphylococci and Enterococci were incubated for 24 hours.
On the technique in general: In agar dilution, organisms are placed on agar that contains the substance at set levels.

The subject of test [1] is M. catarrhalis ATCC 43628. Description: Agar Dilution Method MIC, M. catarrhalis ATCC 43628. The test is classed as cell-based, Morexella catarrhalis. Conditions: Moraxella catarrhalis, ATCC43628, Mueller Hinton Agar, 35° Celsius, 20 hours, read-out: Minimum Inhibitory Concentration (MIC in μg/ml). As to the method: as §1, §2, §3, §4
The test system of the next test is S. aureus MRO 00003. In words: Agar Dilution Method MIC, S. aureus MRO 00003. The settings on record: Staphylococcus aureus, MRO00003, Mueller Hinton Agar, 35° Celsius, 20 hours, read-out: Minimum Inhibitory Concentration (MIC in μg/ml). The format is cell-based. On the procedure: as §1, §2, §3, §4
Test [2] has as its system M. catarrhalis ATCC 43627. In words: Agar Dilution Method MIC, M. catarrhalis ATCC 43627. The settings on record: Moraxella catarrhalis, ATCC43627, Mueller Hinton Agar, 35° Celsius, 20 hours, read-out: Minimum Inhibitory Concentration (MIC in μg/ml). The test is classed as cell-based, Morexella catarrhalis. As to the method:
as §1, §2, §3, §4

Another test relates to S. aureus MRO 00001. In words: Agar Dilution Method MIC, S. aureus MRO 00001. The settings on record: Staphylococcus aureus, MRO00001, Mueller Hinton Agar, 35° Celsius, 20 hours, read-out: Minimum Inhibitory Concentration (MIC in μg/ml). The test is classed as cell-based. As to the method: as §1, §2, §3, §4
Another test deals with S. aureus ATCC 43300. Description: Agar Dilution Method MIC, S. aureus ATCC 43300. Conditions: Staphylococcus aureus, ATCC43300, Mueller Hinton Agar, 35° Celsius, 20 hours, read-out: Minimum Inhibitory Concentration (MIC in μg/ml). The format is cell-based. On the procedure: as §1, §2, §3, §4
In a further test the test system is E. faecalis ATCC 29212. In words: Agar Dilution Method MIC, E. faecalis ATCC 29212. The test is classed as cell-based. The settings on record: Enterococcus faecalis, ATCC29212, Mueller Hinton Agar, 35° Celsius, 20 hours, read-out: Minimum Inhibitory Concentration (MIC in μg/ml). On the procedure:
as §1, §2, §3, §4

The subject of the next test is E. faecalis ATCC 51299. In words: Agar Dilution Method MIC, E. faecalis ATCC 51299. The format is cell-based. The settings on record: Enterococcus faecalis, ATCC51299, Mueller Hinton Agar, 35° Celsius, 20 hours, read-out: Minimum Inhibitory Concentration (MIC in μg/ml). On the procedure: as §1, §2, §3, §4
Another test concerns S. aureus MRO 00055. In words: Agar Dilution Method MIC, S. aureus MRO 00055. The format is cell-based. Conditions: Staphylococcus aureus, MRO00055, Mueller Hinton Agar, 35° Celsius, 20 hours, read-out: Minimum Inhibitory Concentration (MIC in μg/ml). On the procedure: as §1, §2, §3, §4
The next test relates to S. aureus MRO 00030. In words: Agar Dilution Method MIC, S. aureus MRO 00030. The format is cell-based. Conditions: Staphylococcus aureus, MRO00030, Mueller Hinton Agar, 35° Celsius, 20 hours, read-out: Minimum Inhibitory Concentration (MIC in μg/ml). As to the method:
as §1, §2, §3, §4

The subject of the next test is S. aureus ATCC 29213. In words: Agar Dilution Method MIC, S. aureus ATCC 29213. The settings on record: Staphylococcus aureus, ATCC29213, Mueller Hinton Agar, 35° Celsius, 20 hours, read-out: Minimum Inhibitory Concentration (MIC in μg/ml). The format is cell-based. On the procedure: as §1, §2, §3, §4
The next test deals with S. aureus MRO 00048. In words: Agar Dilution Method MIC, S. aureus MRO 00048. The test is classed as cell-based. The settings on record: Staphylococcus aureus, MRO00048, Mueller Hinton Agar, 35° Celsius, 20 hours, read-out: Minimum Inhibitory Concentration (MIC in μg/ml). As to the method: as §1, §2, §3, §4
The subject of the next test is E. fecalis MRO 04045. Description: Agar Dilution Method MIC, E. fecalis MRO 04045. The test is classed as cell-based. Conditions: Enterococcus faecalis, MRO04045, Mueller Hinton Agar, 35° Celsius, 20 hours, read-out: Minimum Inhibitory Concentration (MIC in μg/ml). On the procedure:
as §1, §2, §3, §4

The next test concerns S. aureus MRO 00013. Description: Agar Dilution Method MIC, S. aureus MRO 00013. The format is cell-based. The settings on record: Staphylococcus aureus, MRO00013, Mueller Hinton Agar, 35° Celsius, 20 hours, read-out: Minimum Inhibitory Concentration (MIC in μg/ml). As to the method: as §1, §2, §3, §4
The subject of test [3] is M. catarrhalis ATCC 43617. In words: Agar Dilution Method MIC, M. catarrhalis ATCC 43617. Conditions: Moraxella catarrhalis, ATCC43617, Mueller Hinton Agar, 35° Celsius, 20 hours, read-out: Minimum Inhibitory Concentration (MIC in μg/ml). The test is classed as cell-based, Morexella catarrhalis. On the procedure:
as §1, §2, §3, §4

Another test concerns S. aureus MRO 00059. In words: Agar Dilution Method MIC, S. aureus MRO 00059. The format is cell-based. The settings on record: Staphylococcus aureus, MRO00059, Mueller Hinton Agar, 35° Celsius, 20 hours, read-out: Minimum Inhibitory Concentration (MIC in μg/ml). On the procedure:
as §1, §2, §3, §4

For `CC(=S)NC[C@H]1CN(c2ccc(N3CCN(C(=S)c4ncc[nH]4)CC3)c(F)c2)C(=O)O1` [Example 22, (S)-N-[3-[3-Fluoro-4-[4-(imidazol-2-ylthiocarbonyl)piperazin-1-yl]phenyl]-2-oxooxazolidin-5-ylmethyl]thioacetamide], the MIC was less than 0.25 µg/mL in the test on S. epidermidis MRO 02046; 1 µg/mL (≈ 2.16 µM) in test [1]; 0.5 µg/mL (≈ 1.08 µM) in the test on S. aureus MRO 00003; 1 µg/mL (≈ 2.16 µM) in test [2]; 0.5 µg/mL (≈ 1.08 µM) in the test on S. aureus MRO 00001; 0.5 µg/mL (≈ 1.08 µM) with S. aureus ATCC 43300. Besides, the MIC with E. faecalis ATCC 29212 is 0.5 µg/mL (≈ 1.08 µM); with E. faecalis ATCC 51299, less than 0.25 µg/mL; in the test with S. aureus MRO 00055 it was 1 µg/mL (≈ 2.16 µM); in the test with S. aureus MRO 00030, 0.5 µg/mL (≈ 1.08 µM); with S. aureus ATCC 29213, 0.5 µg/mL (≈ 1.08 µM); with S. aureus MRO 00048, less than 0.25 µg/mL. Moreover, the MIC in the test with E. fecalis MRO 04045 was determined as 1 µg/mL (≈ 2.16 µM); in the test on S. aureus MRO 00013 it was 1 µg/mL (≈ 2.16 µM); in [3] it was 1 µg/mL (≈ 2.16 µM); with S. aureus MRO 00059, 0.5 µg/mL (≈ 1.08 µM).

With `CC(=S)NC[C@H]1CN(c2ccc(N3CCN(C(=S)c4cnccn4)CC3)c(F)c2)C(=O)O1` [Example 14, (S)-N-[3-[3-Fluoro-4-[4-(pyrazin-2-ylthiocarbonyl)piperazin-1-yl]phenyl]-2-oxooxazolidin-5-ylmethyl]thioacetamide], the MIC was determined as 0.25 µg/mL (≈ 0.527 µM) in the test with S. epidermidis MRO 02046; 2 µg/mL (≈ 4.21 µM) in [1]; 0.5 µg/mL (≈ 1.05 µM) in the test on S. aureus MRO 00003; 2 µg/mL (≈ 4.21 µM) in test [2]; 0.25 µg/mL (≈ 0.527 µM) with S. aureus MRO 00001; 0.25 µg/mL (≈ 0.527 µM) with S. aureus ATCC 43300. Moreover, the MIC was 0.25 µg/mL (≈ 0.527 µM) with E. faecalis ATCC 29212; 0.25 µg/mL (≈ 0.527 µM) with E. faecalis ATCC 51299; 0.5 µg/mL (≈ 1.05 µM) in the test with S. aureus MRO 00055; 0.5 µg/mL (≈ 1.05 µM) with S. aureus MRO 00030; 0.5 µg/mL (≈ 1.05 µM) in the test on S. aureus ATCC 29213; 0.25 µg/mL (≈ 0.527 µM) in the test with S. aureus MRO 00048. Moreover, the MIC in the test with E. fecalis MRO 04045 came to 0.25 µg/mL (≈ 0.527 µM); in the test on S. aureus MRO 00013 it was 0.5 µg/mL (≈ 1.05 µM); in test [3] it was 2 µg/mL (≈ 4.21 µM); in the test with S. aureus MRO 00059, 0.25 µg/mL (≈ 0.527 µM).

Take `CC(=S)NC[C@H]1CN(c2ccc(N3CCN(C(=S)NC(=O)c4ccccc4)CC3)c(F)c2)C(=O)O1` [Example 47]: the MIC was determined as 0.25 µg/mL (≈ 0.485 µM) in the test on S. epidermidis MRO 02046; 0.5 µg/mL (≈ 0.97 µM) with S. aureus MRO 00003; 0.25 µg/mL (≈ 0.485 µM) in the test on S. aureus MRO 00001; 0.25 µg/mL (≈ 0.485 µM) with S. aureus ATCC 43300; 0.25 µg/mL (≈ 0.485 µM) in the test with E. faecalis ATCC 29212; 0.25 µg/mL (≈ 0.485 µM) with E. faecalis ATCC 51299. In addition, the MIC in the test with S. aureus MRO 00055 worked out at 0.5 µg/mL (≈ 0.97 µM); in the test on S. aureus MRO 00030, 0.5 µg/mL (≈ 0.97 µM); with S. aureus ATCC 29213 it was 0.5 µg/mL (≈ 0.97 µM); with S. aureus MRO 00048, 0.25 µg/mL (≈ 0.485 µM); in the test with E. fecalis MRO 04045, 0.25 µg/mL (≈ 0.485 µM); in the test with S. aureus MRO 00013 it was 0.5 µg/mL (≈ 0.97 µM). Also, in the test on S. aureus MRO 00059, the MIC was 0.25 µg/mL (≈ 0.485 µM).

Consider `CC(=S)NC[C@H]1CN(c2ccc(N3CCN(C(=S)Nc4ccc([N+](=O)[O-])cc4)CC3)c(F)c2)C(=O)O1` [Example 45, (S)-N-[3-[3-Fluoro-4-(4-(4-nitrophenyl)thiocarbamidopiperazin-1-yl)phenyl]-2-oxooxazolidin-5-methyl]thioacetamide], for which the MIC with S. epidermidis MRO 02046 was found to be 0.25 µg/mL (≈ 0.469 µM); in the test with S. aureus MRO 00003 it was 0.5 µg/mL (≈ 0.939 µM); in the test on S. aureus MRO 00001, 0.25 µg/mL (≈ 0.469 µM); with S. aureus ATCC 43300 it was 0.25 µg/mL (≈ 0.469 µM); with E. faecalis ATCC 29212, 0.25 µg/mL (≈ 0.469 µM); with E. faecalis ATCC 51299, 0.25 µg/mL (≈ 0.469 µM). Moreover, the MIC in the test on S. aureus MRO 00055 came out at 0.5 µg/mL (≈ 0.939 µM); in the test on S. aureus MRO 00030, 0.5 µg/mL (≈ 0.939 µM); with S. aureus ATCC 29213, 0.5 µg/mL (≈ 0.939 µM); with S. aureus MRO 00048 it was 0.25 µg/mL (≈ 0.469 µM); with E. fecalis MRO 04045 it was 0.25 µg/mL (≈ 0.469 µM); in the test on S. aureus MRO 00013 it was 0.5 µg/mL (≈ 0.939 µM). In addition, the MIC in the test on S. aureus MRO 00059 was 0.5 µg/mL (≈ 0.939 µM).
